What was measured:
CYP1A2 = molecular target: T1, CYP1A2 (Homo sapiens, UniProt P05177); test: CYP inhibition assay in human liver microsomes; format: in vitro ADME; details: pooled human liver microsomes, individual constituents 10 μM; for inhibition at 60 min, 10 μM: pH 7.4
T1 construct: tissue Corning 452117; host or cells: pooled human liver microsomes (150 donors)
T1 sequence (P05177 1-516): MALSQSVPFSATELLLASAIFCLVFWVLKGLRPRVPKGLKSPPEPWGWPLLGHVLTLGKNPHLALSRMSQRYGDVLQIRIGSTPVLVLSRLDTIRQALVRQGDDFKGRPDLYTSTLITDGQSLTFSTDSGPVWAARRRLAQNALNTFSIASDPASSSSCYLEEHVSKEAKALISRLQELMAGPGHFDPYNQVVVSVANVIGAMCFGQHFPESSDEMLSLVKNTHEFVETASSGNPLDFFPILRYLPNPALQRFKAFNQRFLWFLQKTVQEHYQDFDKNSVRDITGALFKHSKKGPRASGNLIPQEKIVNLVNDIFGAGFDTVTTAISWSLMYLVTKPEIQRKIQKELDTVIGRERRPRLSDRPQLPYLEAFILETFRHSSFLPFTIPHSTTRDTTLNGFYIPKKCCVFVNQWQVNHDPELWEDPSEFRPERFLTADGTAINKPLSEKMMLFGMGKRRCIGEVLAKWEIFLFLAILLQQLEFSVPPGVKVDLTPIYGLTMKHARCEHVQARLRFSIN
Procedure: (§1) CYP-mediated metabolite formation from a substrate (200 μM each) or the formation of glucuronide conjugates from the UGT isozyme-specific substrate (200 μM each) was monitored to determine the isozyme activity. Typical incubation was performed with rat (1 mg/mL) or human (0.5 mg/mL) liver microsomes in the presence of an appropriate cofactor in a buffer system (pH 7.4) at 37 °C for 60 min as described previously.
The HPLC system (Agilent, Santa Clara, CA, USA) consisted of an Agilent 1200 binary pump, DAD, and Agilent 1260 autosampler. A Kinetex C18 reverse-phase column (5 μm, 4.6 × 150 mm) (Phenomenex, Torrance, CA, USA) protected by a KrudKatcher Ultra HPLC in-line filter (Phenomenex) was used for separation. […] LC-electrospray (ESI)-tandem mass spectrometry (MS^2) analysis was employed to detect glucuronide products. An Linear Trap Quadropole (LTQ) linear ion trap mass spectrometer (Thermo Scientific, Waltham, MA, USA) with an ESI source was coupled with an Agilent 1200 HPLC system.

CYP2C11 = test: CYP inhibition assay in OVX rat liver microsomes; format: in vitro ADME; details: for inhibition at 60 min, 10 μM: female, liver microsomes from ovariectomized (OVX) rats, pH 7.4, individual constituents 10 μM
Procedure: as §1
(§2) The HPLC system (Agilent, Santa Clara, CA, USA) consisted of an Agilent 1200 binary pump, DAD, and Agilent 1260 autosampler. A Kinetex C18 reverse-phase column (5 μm, 4.6 × 150 mm) (Phenomenex, Torrance, CA, USA) protected by a KrudKatcher Ultra HPLC in-line filter (Phenomenex) was used for separation. HPLC conditions to determine the isozyme-specific metabolites and major constituents in OFIE are described in the Supplementary Materials. LC-electrospray (ESI)-tandem mass spectrometry (MS^2) analysis was employed to detect glucuronide products. An Linear Trap Quadropole (LTQ) linear ion trap mass spectrometer (Thermo Scientific, Waltham, MA, USA) with an ESI source was coupled with an Agilent 1200 HPLC system.

CYP3A1 [1] = test: CYP inhibition assay in OVX rat liver microsomes; format: in vitro ADME; details: female, liver microsomes from ovariectomized (OVX) rats, pH 7.4, individual constituents 10 μM
Procedure: as §1, §2

CYP3A4 = molecular target: T2, CYP3A4 (Homo sapiens, UniProt P08684); parameters: method as in earlier work; details: range given jointly for quercetin and kaempferol on CYP1A2 and CYP3A4; Von Moltke et al.; read-out: IC50, inhibition of CYP3A4; cited from earlier work
T2 construct: tissue Corning 452117; host or cells: pooled human liver microsomes (150 donors)
T2 sequence (P08684 whole entry): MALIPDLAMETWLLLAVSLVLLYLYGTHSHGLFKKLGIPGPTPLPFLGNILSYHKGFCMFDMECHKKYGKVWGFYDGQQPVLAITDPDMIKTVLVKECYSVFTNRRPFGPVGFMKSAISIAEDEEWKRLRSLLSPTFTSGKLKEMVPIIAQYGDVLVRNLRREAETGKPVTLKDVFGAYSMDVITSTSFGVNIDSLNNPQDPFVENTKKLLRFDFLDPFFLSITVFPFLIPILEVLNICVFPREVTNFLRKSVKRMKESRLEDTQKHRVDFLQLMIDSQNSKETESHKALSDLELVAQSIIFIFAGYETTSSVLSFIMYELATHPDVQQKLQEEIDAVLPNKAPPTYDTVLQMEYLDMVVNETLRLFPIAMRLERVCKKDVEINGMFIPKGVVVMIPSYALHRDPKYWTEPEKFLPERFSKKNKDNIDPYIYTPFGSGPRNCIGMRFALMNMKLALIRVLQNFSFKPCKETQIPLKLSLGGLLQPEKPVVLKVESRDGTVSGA

[2] = molecular target: T3, human pregnane X receptor (hPXR) (Homo sapiens, UniProt O75469); test: PXR-mediated CYP3A4 promoter luciferase reporter assay in HepG2 cells; format: cell-based; details: 24 h, vs DMSO; for induction in the PXR promoter activity: individual flavonoids 10 μM
T3 construct: expressed in transfected cells; host or cells: HepG2
T3 sequence (O75469 1-434): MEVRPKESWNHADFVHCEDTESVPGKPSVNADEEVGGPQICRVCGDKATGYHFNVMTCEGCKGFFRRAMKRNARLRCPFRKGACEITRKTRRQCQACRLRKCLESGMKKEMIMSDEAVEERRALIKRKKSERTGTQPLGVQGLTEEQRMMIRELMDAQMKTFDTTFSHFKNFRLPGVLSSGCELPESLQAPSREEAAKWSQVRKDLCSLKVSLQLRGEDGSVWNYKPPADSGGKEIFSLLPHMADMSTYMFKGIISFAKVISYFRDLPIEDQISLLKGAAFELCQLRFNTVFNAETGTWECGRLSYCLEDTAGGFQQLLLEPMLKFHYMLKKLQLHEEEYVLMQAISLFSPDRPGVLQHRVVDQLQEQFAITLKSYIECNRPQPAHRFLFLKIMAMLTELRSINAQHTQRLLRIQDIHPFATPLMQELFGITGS
Procedure: The human hepatocarcinoma cell line HepG2 was purchased from the […] (Manassas, VA, USA) and maintained in Dulbecco’s modified Eagle’s essential medium (DMEM) containing 10% fetal bovine serum, 1% nonessential amino acids, 1% GlutaMAX, and 1% antibiotics/antimycotics in a 5% CO2 atmosphere at 37 °C.
The expression plasmid for human constitutive androstane receptor (hCAR; pcDNA3-CAR) and pGL3-CYP2B6 luciferase construct were kindly provided by Dr. Hongbing Wang (University of Maryland, College Park, MD, USA). The plasmid for human pregnane X receptor (hPXR; pcDNA3-PXR) and pGL3-CYP3A4 luciferase construct were generous gifts from Masahiko Negishi (National Institutes of Health, Bethesda, MD, USA). HepG2 cells were seeded at a density of 1.5 × 10^5 cells/well into a 24-well plate. On the next day, the cells were transfected with 0.25 μg of either pcDNA3-CAR or pcDNA3-PXR and 0.25 μg of promoter luciferase plasmid (i.e., either pGL3-CYP2B6 or pGL3-CYP3A4) using Lipofectamine 2000 (Invitrogen, Carlsbad, CA, USA) according to the manufacturer’s instructions. To normalize the transfection efficiency, the pRL-TK plasmid (0.25 μg/well; Promega), which contains cDNA encoding Renilla luciferase, was cotransfected. The transfected cells were grown for 24 h, treated with various test materials, and incubated for an additional 24 h. The luciferase activities in the cell lysates were measured using the dual luciferase assay system (Promega) with a SpectraMax i3x (Molecular Devices, San Jose, CA, USA). Data are reported as a relative luciferase activity, which is the firefly luciferase reading divided by the Renilla luciferase reading.

CYP3A1 [3] = test: hepatic mRNA expression (qPCR) in OVX rats after 5-week oral administration; format: in vivo; details: OVX rat liver; E2 0.5 mg/kg/day oral, 5 weeks; vs vehicle control
Procedure: (§5) After 14 days of endogenous hormonal decline, rats were randomly divided into several groups (n = 6 per group) and subjected to oral administration of olive oil (control), E2 (0.5 mg/kg/day, positive control) or OFIE (250 and 500 mg/kg/day) via gastric gavage for 5 weeks. […] Administration via forced gastric gavage was performed to ensure the exact amount of test compounds be dosed to each animal. […] Animals were weighed daily and dosage was changed weekly according to weight gain.
(§6) The total RNA was isolated from homogenized rat liver tissue using a Nucleospin RNA/Protein kit (Macherey-Nagel, Düren, Germany) according to the manufacturer’s manual. The cDNA was synthesized from the total RNA (2 μg) using oligo (dT) and M-MLV reverse transcriptase (Promega, Madison, WI, USA). A qPCR analysis was performed to determine the mRNA levels of both hepatic CYP and UGT isozymes on an ABI Prism 7500 Sequence Detection System (Applied Biosystems, Foster City, CA, USA) using SYBR Green PCR Master Mix (Toyobo, Osaka, Japan) and a gene-specific primer set (Table S1 for primer sequences). The ABI 7500 Software (v2.0.6, Foster City, CA, USA) was used for the estimation of CT. The 2^−ΔΔCt method was applied for relative quantification. […] The results were expressed as fold change when the gene expression level in the vehicle control-treated sample was set as 1.

[4] = molecular target: T4, human constitutive androstane receptor (hCAR) (Homo sapiens, UniProt Q14994); test: CAR-mediated CYP2B6 promoter luciferase reporter assay in HepG2 cells; format: cell-based; details: E2, concentration not given, 24 h, vs DMSO
T4 construct: expressed in transfected cells; host or cells: HepG2
T4 sequence (Q14994 1-352): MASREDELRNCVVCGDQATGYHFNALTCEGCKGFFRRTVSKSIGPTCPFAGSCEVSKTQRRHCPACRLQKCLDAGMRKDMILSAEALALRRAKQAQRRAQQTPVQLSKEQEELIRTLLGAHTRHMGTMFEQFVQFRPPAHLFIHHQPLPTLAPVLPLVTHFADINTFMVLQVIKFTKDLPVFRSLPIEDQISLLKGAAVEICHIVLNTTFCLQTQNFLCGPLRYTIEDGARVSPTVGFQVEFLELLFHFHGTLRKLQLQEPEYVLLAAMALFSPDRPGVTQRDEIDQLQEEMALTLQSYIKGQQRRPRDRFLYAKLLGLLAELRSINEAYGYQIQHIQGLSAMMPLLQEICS

CYP2D1 = test: hepatic mRNA expression (qPCR) in OVX rats after 5-week oral administration; format: in vivo; details: OVX rat liver; E2 0.5 mg/kg/day oral, 5 weeks; vs vehicle control
Procedure: (§3) Rats were bilaterally ovariectomized under 1.5–3% isoflurane anesthesia as described previously. […] Administration via forced gastric gavage was performed to ensure the exact amount of test compounds be dosed to each animal. […] Animals were weighed daily and dosage was changed weekly according to weight gain. Animals were euthanized by carbon dioxide inhalation to minimize aversion or distress. Liver microsomal fractions were prepared from livers of OVX rats using differential centrifugation as described previously.
(§4) The total RNA was isolated from homogenized rat liver tissue using a Nucleospin RNA/Protein kit (Macherey-Nagel, Düren, Germany) according to the manufacturer’s manual. The cDNA was synthesized from the total RNA (2 μg) using oligo (dT) and M-MLV reverse transcriptase (Promega, Madison, WI, USA). A qPCR analysis was performed to determine the mRNA levels of both hepatic CYP and UGT isozymes on an ABI Prism 7500 Sequence Detection System (Applied Biosystems, Foster City, CA, USA) using SYBR Green PCR Master Mix (Toyobo, Osaka, Japan) and a gene-specific primer set (Table S1 for primer sequences).

UGT2B1 = test: as above; format: in vivo; details: OVX rat liver; E2 0.5 mg/kg/day and both doses of OFIE (250, 500 mg/kg/day) oral, 5 weeks; range over the groups
Procedure: as §3, §4

UGT isoforms = test: ex vivo activity assay in liver microsomes of orally treated OVX rats; parameters: species or system rat; details: E2 0.5 mg/kg/day oral, 5 weeks
Procedure: as §2, with “Rats were bilaterally ovariectomized under 1.5-3% isoflurane anesthesia as described previously. […] Administration via forced gastric gavage was performed to ensure the exact amount of test compounds be dosed to each animal. […] Animals were weighed daily and dosage was changed weekly according to weight gain. Animals were euthanized by carbon dioxide inhalation to minimize aversion or distress. Liver microsomal fractions were prepared from livers of OVX rats using differential centrifugation as described previously. […] The HPLC” for “The HPLC”

CYP2B1 [5] = test: as above; parameters: species or system rat; details: E2 0.5 mg/kg/day oral, 5 weeks, control group set as 1
Procedure: as §2, with “Rats were bilaterally ovariectomized under 1.5-3% isoflurane anesthesia as described previously. […] Administration via forced gastric gavage was performed to ensure the exact amount of test compounds be dosed to each animal. […] Animals were weighed daily and dosage was changed weekly according to weight gain. Animals were euthanized by carbon dioxide inhalation to minimize aversion or distress. Liver microsomal fractions were prepared from livers of OVX rats using differential centrifugation as described previously. […] The HPLC” for “The HPLC”

CYP2B1 [6] = test: hepatic mRNA expression (qPCR) in OVX rats after 5-week oral administration; format: in vivo; details: OVX rat liver; E2 0.5 mg/kg/day oral, 5 weeks; vs vehicle control
Procedure: as §5, §6

## O=c1c(O)c(-c2ccc(O)c(O)c2)oc2cc(O)cc(O)c12 [quercetin]
CYP1A2
  inhibition at 60 min, 10 μM: 31%
CYP2C11
  inhibition at 60 min, 10 μM: 18%
CYP3A1 [1]
  inhibition at 60 min, 10 μM: 10%

## O=c1c(O)c(-c2ccc(O)cc2)oc2cc(O)cc(O)c12 [kaempferol]
CYP3A4
  IC50: 10 to 16 µM
CYP2C11
  inhibition at 60 min, 10 μM: 10%
CYP3A1 [1]
  inhibition at 60 min, 10 μM: 20%

## C[C@@H]1O[C@@H](OC[C@H]2O[C@@H](Oc3c(-c4ccc(O)c(O)c4)oc4cc(O)cc(O)c4c3=O)[C@H](O)[C@@H](O)[C@@H]2O)[C@H](O)[C@H](O)[C@H]1O [rutin]
[2]
  induction in the PXR promoter activity: significant induction

## COc1cc(-c2oc3cc(O)cc(O)c3c(=O)c2O)ccc1O [isorhamnetin]
CYP1A2
  inhibition at 60 min, 10 μM: 40%
CYP2C11; individual constituents 10 μM
  inhibition of rat CYP2C11 activity: did not result in a significant inhibition

## COc1cc(-c2oc3cc(O)cc(O)c3c(=O)c2O[C@@H]2O[C@H](CO[C@@H]3O[C@@H](C)[C@H](O)[C@@H](O)[C@H]3O)[C@@H](O)[C@H](O)[C@H]2O)ccc1O [narcissin]
CYP1A2
  inhibition of human CYP1A2 activity: did not significantly inhibit
[2]
  induction in the PXR promoter activity: significant induction
CYP3A1 [1]
  inhibition at 60 min, 10 μM: 10%

## C[C@]12CC[C@@H]3c4ccc(O)cc4CC[C@H]3[C@@H]1CC[C@@H]2O [E2, 17β-Estradiol]
CYP3A1 [3]
  increase in mRNA expression of CYP3A1: 12 fold
[4]
  increase in CAR-mediated CYP2B6 reporter activity: 4.8 fold
CYP2D1
  increase in mRNA expression of CYP2D1: 2.6 fold
UGT2B1
  increased expression of UGT2B1 mRNA: 3.8–6.5 folds
UGT isoforms
  change in activities of all UGT isoforms examined: no changes
CYP2B1 [5]
  increase in activity of CYP2B1: 2.7 fold
[2]; E2, concentration not given
  PXR-mediated CYP3A4 reporter activity: did not alter
CYP2B1 [6]
  increase in mRNA expression of CYP2B1: 7.7 fold

— paper PMC6274835, “Inhibitory and Inductive Effects of Opuntia ficus indica Extract and Its Flavonoid Constituents on Cytochrome P450s and UDP-Glucuronosyltransferases” (International Journal of Molecular Sciences, 2018)
